Measured values reported in patent US20150105252A1, “SUBSTITUTED PYRAZOLES AS HERBICIDES” (E I DU PONT DE NEMOURS AND COMPANY, priority 2013, published 2015).

Assays:
[1] = test system: field poppy; experiment: Test D postemergence; format: in vivo, Papaver rhoeas; details: scale 0 to 100
How it was run: (§1)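 Pre: sown in silt loam, sprayed at once. Post: grown in peat-moss/vermiculite mix, sprayed at 1–4 leaves (2–18 cm). Formulation: non-phytotoxic solvent + surfactant. Read-out: visual 0–100 vs controls, 14–21 d.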

[2] = test system: galium; experiment: Test D preemergence; format: in vivo, Galium aparine; details: scale 0 to 100
Excerpt: (§2) Seeds of plant species selected from bluegrass (annual bluegrass, Poa annua), blackgrass (Alopecurus myosuroides), canarygrass (littleseed canarygrass, Phalaris minor), chickweed (common chickweed, Stellaria media), galium (catchweed bedstraw, Galium aparine), bromegrass, downy (downy bromegrass, Bromus tectorum), field poppy (Papaver rhoeas), field violet (Viola arvensis), foxtail, green (green foxtail, Setaria viridis), deadnettle (henbit deadnettle, Lamium amplexicaule), ryegrass, Italian (Italian ryegrass, Lolium multiflorum), kochia (Kochia scoparia), lambsquarters (Chenopodium album), oilseed rape (Brassica napus), pigweed (redroot pigweed, Amaranthus retroflexus), chamomile (scentless chamomile, Matricaria inodora), speedwell (bird's-eye speedwell, Veronica persica), barley, spring (spring barley, Hordeum vulgare), wheat, spring (spring wheat, Triticum aestivum), buckwheat, wild (wild buckwheat, Polygonum convolvulus), mustard, wild (wild mustard, Sinapis arvensis), oat, wild (wild oat, Avena fatua), radish, wild (wild radish, Raphanus raphanistrum), windgrass (Apera spica-venti), Russian thistle (Salsola kali), barley, winter (winter barley, Hordeum vulgare), and wheat, winter (winter wheat, Triticum aestivum) were planted into a silt loam soil and treated preemergence with test chemicals formulated in a non-phytotoxic solvent mixture which included a surfactant.
(§3) At the same time, these species were planted in pots containing Redi-Earth® planting medium (Scotts Company, 14111 Scottslawn Road, Marysville, Ohio 43041) comprising spaghnum peat moss, vermiculite, wetting agent and starter nutrients and treated with postemergence applications of the test chemicals formulated in the same manner. Plants ranged in height from 2 to 18 cm (1- to 4-leaf stage). Treated plants and controls were maintained in a controlled growth environment for 14 to 21 days after which time all species were compared to controls and visually evaluated. Plant response ratings, summarized in Table D, are based on a scale of 0 to 100 where 0 is no effect and 100 is complete control. A dash (-) response means no test result.

[3] = test system: buckwheat, wild; experiment: Test D preemergence; format: in vivo, Polygonum convolvulus; details: scale 0 to 100
How it was run: as §1

[4] = test system: barley, winter; experiment: Test D preemergence; format: in vivo, Hordeum vulgare; details: scale 0 to 100
How it was run: as §1

[5] = test system: barley, spring; experiment: Test D preemergence; format: in vivo, Hordeum vulgare; details: scale 0 to 100
How it was run: as §1

[6] = test system: Italian ryegrass; experiment: Test F preemergence; format: in vivo, Lolium multiflorum
Excerpt: (§4) Seeds of plant species selected from corn (Zea mays), soybean (Glycine max), velvetleaf (Abutilon theophrasti), lambsquarters (Chenopodium album), wild poinsettia (Euphorbia heterophylla), pigweed, palmer (palmer pigweed, Amaranthus palmeri), common waterhemp (Amaranthus rudis), surinam grass (Brachiaria decumbens), large crabgrass (Digitaria sanguinalis), crabgrass, Brazil (Brazilian crabgrass, Digitaria horizontalis), fall panicum (Panicum dichotomiflorum), giant foxtail (Setaria faberii), green foxtail (Setaria viridis), goosegrass (Eleusine indica), johnsongrass (Sorghum halepense), common ragweed (Ambrosia elation), barnyardgrass (Echinochloa crus-galli), southern sandbur (Cenchrus echinatus), arrowleaf sida (Sida rhombifolia), Italian ryegrass (Lolium multiflorum), dayflower, VA (Virginia (VA) dayflower, Commelina virginica), field bindweed (Convolvulus arvensis), cocklebur (common cocklebur, Xanthium strumarium), morningglory (Ipomoea coccinea), nightshade (eastern black nightshade, Solanum ptycanthum), kochia (Kochia scoparia), yellow nutsedge (Cyperus esculentus), and hairy beggarticks (Bidens pilosa), were planted into a silt loam soil and treated preemergence with test chemicals formulated in a non-phytotoxic solvent mixture which included a surfactant.
(§5) At the same time, plants from these crop and weed species and also horseweed (Canada horseweed, Conyza canadensis), smartweed (ladysthumb smartweed, Polygonum persicaria), waterhemp_RES1, (ALS & Triazine resistant common waterhemp, Amaranthus rudis), and waterhemp_RES2, (ALS & HPPD resistant common waterhemp, Amaranthus rudis) were treated with postemergence applications of test chemicals formulated in the same manner. Plants ranged in height from 2 to 18 cm for postemergence treatments (1- to 4-leaf stage). Treated plants and controls were maintained in a greenhouse for 14 to 21 days, after which time all species were compared to controls and visually evaluated. Plant response ratings, summarized in Table F, are based on a scale of 0 to 100 where 0 is no effect and 100 is complete control. A dash (-) response means no test result.

[7] = test system: wheat, spring; experiment: Test D postemergence; format: in vivo, Triticum aestivum; details: scale 0 to 100
Excerpt: as §2, §3

[8] = test system: wheat, winter; experiment: Test D postemergence; format: in vivo, Triticum aestivum; details: scale 0 to 100
Excerpt: as §2, §3

[9] = test system: mustard, wild; experiment: Test D postemergence; format: in vivo, Sinapis arvensis; details: scale 0 to 100
Excerpt: as §2, §3

[10] = test system: bromegrass, downy; experiment: Test D postemergence; format: in vivo, Bromus tectorum; details: scale 0 to 100
How it was run: as §1

[11] = test system: chickweed; experiment: Test D postemergence; format: in vivo, Stellaria media; details: scale 0 to 100
How it was run: as §1

[12] = test system: morningglory; experiment: Test F preemergence; format: in vivo, Ipomoea coccinea
How it was run: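 Formulated in surfactant-containing non-phytotoxic solvent; pre: applied to seeded silt loam; post: applied to plants 2–18 cm (1–4 leaves); greenhouse 14–21 d; visual 0–100 rating vs controls.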

[13] = test system: field bindweed; experiment: Test F preemergence; format: in vivo, Convolvulus arvensis
Excerpt: as §4, §5

[14] = test system: oat, wild; experiment: Test D postemergence; format: in vivo, Avena fatua; details: scale 0 to 100
Excerpt: as §2, §3

[15] = Preemergence, 31 g ai/ha, scale 0 to 100
[16] = Preemergence, 62 g ai/ha, scale 0 to 100
[17] = Preemergence, 125 g ai/ha, scale 0 to 100
[18] = preemergence, 8 g ai/ha, scale 0 to 100, 100 is complete control
[19] = preemergence, 16 g ai/ha, scale 0 to 100, 100 is complete control

With `CCc1cc(C(=O)NCC(F)(F)F)nn1Cc1ccnc(C(F)(F)F)c1` [Compound 78, 5-ethyl-N-(2,2,2-trifluoroethyl)-1-[[(2-trifluoromethyl)-4-pyridinyl]methyl]-1H-pyrazole-3-carboxamide] the “Field Poppy plant response rating” value ([1]; Postemergence, 31 g ai/ha) was 55, the “Field Poppy plant response rating” value ([1]; Postemergence, 125 g ai/ha) was 70 and the “Field Poppy plant response rating” value ([1]; Postemergence, 250 g ai/ha) was 85. The “Field Poppy plant response rating” value ([1]; postemergence, 62 g ai/ha) was 65, the “Plant response rating, Galium” value ([2]; 31 g ai/ha) was 95 and the “Plant response rating, Galium” value ([2]; 62 g ai/ha) was 100. The “Plant response rating, Galium” value ([2]; 125 g ai/ha) was 100, the “Plant response rating, Galium” value ([2]; 250 g ai/ha) was 100 and the “Plant response rating, Buckwheat, Wild” value ([3]; 31 g ai/ha) was 95. The “Plant response rating, Buckwheat, Wild” value ([3]; 62 g ai/ha) was 100, the “Plant response rating, Buckwheat, Wild” value ([3]; 125 g ai/ha) was 100 and the “Plant response rating, Buckwheat, Wild” value ([3]; 250 g ai/ha) was 100. The “Plant response rating, Barley, Winter” value ([4]; 31 g ai/ha) was 25, the “Plant response rating, Barley, Winter” value ([4]; 62 g ai/ha) was 50 and the “Plant response rating, Barley, Winter” value ([4]; 125 g ai/ha) was 65. For the same molecule, the “Plant response rating, Barley, Winter” value ([4]; 250 g ai/ha) was 95, the “Plant response rating, Barley, Spring” value ([5]; 31 g ai/ha) was 20 and the “Plant response rating, Barley, Spring” value ([5]; 62 g ai/ha) was 65. The “Plant response rating, Barley, Spring” value ([5]; 125 g ai/ha) was 90, the “Plant response rating, Barley, Spring” value ([5]; 250 g ai/ha) was 100 and the “Plant response rating, Italian Ryegrass” value [6, 15] was 5. For the same molecule, the “Plant response rating, Italian Ryegrass” value [6, 16] was 60, the “Plant response rating, Italian Ryegrass” value [6, 17] was 90 and the “Plant response rating, Italian Ryegrass” value [6, 18] was 0. For the same molecule, the “Plant response rating, Italian Ryegrass” value [6, 19] was 0, the “Wheat, Spring plant response rating” value ([7]; Postemergence, 31 g ai/ha) was 0 and the “Wheat, Spring plant response rating” value ([7]; Postemergence, 125 g ai/ha) was 15. The “Wheat, Spring plant response rating” value ([7]; Postemergence, 250 g ai/ha) was 25, the “Wheat, Spring plant response rating” value ([7]; postemergence, 62 g ai/ha) was 5 and the “Wheat, Winter plant response rating” value ([8]; Postemergence, 31 g ai/ha) was 10. The “Wheat, Winter plant response rating” value ([8]; Postemergence, 125 g ai/ha) was 25, the “Wheat, Winter plant response rating” value ([8]; Postemergence, 250 g ai/ha) was 55 and the “Wheat, Winter plant response rating” value ([8]; postemergence, 62 g ai/ha) was 15. The “Mustard, Wild plant response rating” value ([9]; Postemergence, 31 g ai/ha) was 40, the “Mustard, Wild plant response rating” value ([9]; Postemergence, 125 g ai/ha) was 90 and the “Mustard, Wild plant response rating” value ([9]; Postemergence, 250 g ai/ha) was 90. For the same molecule, the “Mustard, Wild plant response rating” value ([9]; postemergence, 62 g ai/ha) was 70, the “Bromegrass, Downy plant response rating” value ([10]; Postemergence, 31 g ai/ha) was 10 and the “Bromegrass, Downy plant response rating” value ([10]; Postemergence, 125 g ai/ha) was 20. For the same molecule, the “Bromegrass, Downy plant response rating” value ([10]; Postemergence, 250 g ai/ha) was 25, the “Bromegrass, Downy plant response rating” value ([10]; postemergence, 62 g ai/ha) was 15 and the “Chickweed plant response rating” value ([11]; Postemergence, 31 g ai/ha) was 25. The “Chickweed plant response rating” value ([11]; Postemergence, 125 g ai/ha) was 70, the “Chickweed plant response rating” value ([11]; Postemergence, 250 g ai/ha) was 80 and the “Chickweed plant response rating” value ([11]; postemergence, 62 g ai/ha) was 50. For the same molecule, the “Plant response rating, Morningglory” value [12, 15] was 100, the “Plant response rating, Morningglory” value [12, 16] was 90 and the “Plant response rating, Morningglory” value [12, 17] was 100. The “Plant response rating, Morningglory” value [12, 18] was 0, the “Plant response rating, Morningglory” value [12, 19] was 40 and the “Plant response rating, Field Bindweed” value [13, 15] was 100. For the same molecule, the “Plant response rating, Field Bindweed” value [13, 16] was 90, the “Plant response rating, Field Bindweed” value [13, 17] was 95 and the “Plant response rating, Field Bindweed” value [13, 18] was 0. The “Plant response rating, Field Bindweed” value [13, 19] was 0, the “Oat, Wild plant response rating” value ([14]; Postemergence, 31 g ai/ha) was 15 and the “Oat, Wild plant response rating” value ([14]; Postemergence, 125 g ai/ha) was 25. For the same molecule, the “Oat, Wild plant response rating” value ([14]; Postemergence, 250 g ai/ha) was 40 and the “Oat, Wild plant response rating” value ([14]; postemergence, 62 g ai/ha) was 20.
